Measurements reported in US11039618B2, “Metam salts and polysulfide soil treatment” (Tessenderlo Kerley, Inc, priority 2016, dated 2021).

Experiments:
[1] = test system: artificially infested V. dahliae soil; experiment: Greenhouse eggplant bioassay (plant height) in treated, artificially infested V. dahliae soil; format: in vivo; settings: preliminary; for eggplant height Jul. 27, 2017: soil treated Jun. 27, 2017, eggplant transplanted July 13, rates gal/acre on 12 inch soil depth, letters after value = statistical grouping, untreated 118; for eggplant height Aug. 4, 2017 / eggplant height Aug. 10, 2017 / eggplant height Aug. 17, 2017: soil treated Jun. 27, 2017, letters = statistical grouping; for eggplant height Aug. 4, 2017: untreated 124; for eggplant height Aug. 10, 2017: untreated 134
Procedure: In these tests, greenhouse and microplot trials were done to further define the LSS efficacy as stand-alone treatment as well as in combination with Sectagon®. A large number of soil samples were treated using the rates below, expressed as gallons equivalent per acre of (LSS), a 3.07 pounds Calcium Polysulfide per gallon Liquid Lime Sulfur Solution, and Sectagon®, a 4.25 pound per gallon sodium methyldithiocarbamate (metam) solution. Each treatment was performed on six samples to provide statistically valid data. As always, though the treatment is defined in terms of gallons per acre of two products, the testing is with a mixture.
To minimize sample variability that was apparent in certain previous tests, these tests were a greenhouse study, using artificially infested V. dahliae soil. A soil derived from a Romaine lettuce field in Salinas, Calif. (collected September 2015) was confirmed (January 2017) to be highly infested with V. dahliae. Romaine lettuce were grown in the V. dahliae infested soil until microsclerotia built up in the leaves. Infested leaves were harvested, dried, crumbled, and mixed with autoclaved sand. Samples of the mixture were tested for V. dahliae. The mixture was used for the greenhouse study and for the production of pathogen bags for the microplot study.
Artificially infested V. dahliae soil were treated according to the above list. The greenhouse/eggplant study utilize a sterile sand+10% potting mix soil. The inoculated soil was pre-irrigated to ca. 70% field capacity for 14 days, and was then soil placed in various containers, each of which was then treated with appropriate LSS/Metam mixture in a certain volume of water. The soil was thoroughly mixed/agitated, and left sealed for 24 hours to simulate a water seal or tarp. The container was then unsealed 24 hours after application and allowed to sit for 14 days and then mixed and apportioned into 4″ pots for growing eggplant as the bioassay.
To simulate a situation closer to field conditions, a field based microplot study was also established for a few of the above tests, using eggplant. The greenhouse/eggplant study utilized a sterile sand+10% potting mix soil; the inoculated soil was pre-irrigated to ca. 70% field capacity for 14 days; soil was placed in a bucket, treated with appropriate LSS/Metam mixture in correct volume of water, thoroughly mixed/agitated, and left sealed for 24 hours to simulate a water seal or tarp. The bucket was unsealed at 24 hours after application and allowed to sit for 14 days and then mixed and apportioned into 4″ pots for growing eggplant as the bioassay. Seven days after treatment, one soil sample per replicate was taken. V. dahliae control efficacy was assessed according to the methods below, but only on selected treatments due to time pressures. At 14 days after treatment, eggplants were grown in the remaining soil to assess treatment effects on vigor and growth. […] Microplots were located at the USDA Research Field at Spence Road, Salinas, Calif. Treatments were selected based on the results of the previous greenhouse study. Trial site was pre-irrigated for 7 days before placing the Verticillium, V. dahliae, sample bags in the various treatments. Sprinkler irrigation was used to establish 60-80% soil moisture. Four V. dahliae samples per replicate were artificially introduced at 4 and 8 inches depth. Treatments were applied with micro emitter and drip across the microplot. The treatment using a 2 hour drip irrigation period was anticipated to provide penetration to 12 inch depth. After treatment, microplots remained untarped. After 5-7 days V. dahliae samples were recovered.
All LSS and Sectagon® treatments were made, mixing the treatment well with the soil and covering to prevent outgassing on Jun. 27, 2017. On June 28 the lids were removed lids. […]

Verticillium = experiment: Jar test 2016: Verticillium microsclerotia colonies in treated soil, dry soil plating on NP-10; format: cell-based, Verticillium dahliae; settings: 2016 test; microsclerotia colonies per gram of soil post-treatment; soil 20% water content; 4 replicates
Procedure: These investigations were performed under laboratory conditions in an initial jar test. We also investigated the pathogen control efficacy of LSS treatments, at 30 gal/acre (90 pounds/acre or 101 Kg/ha of calcium polysulfide) and at 90 gal/acre (276 pounds/acre or 310 Kg/ha of calcium polysulfide), and combined Metam/LSS treatments using Sectagon® brand metam at 20 gal/acre Metam (84 pounds/acre or 94 Kg/ha of metam sodium) with 40 gal/acre LSS (122 pounds/acre or 138 Kg/ha of calcium polysulfide); and at 30 gal/acre Metam (126 pounds/acre or […] of metam sodium) with 20 gal/acre LSS (60 pounds/acre or 67 kg/ha of calcium polysulfide). […] This may be due to lower water saturation in the 2016 tests compared to the saturation in 2015 tests, which was near 100%.
Each treatment listed in Table 1 was replicated 4 times. Verticillium levels in soil were assessed by dry incubation on semi selective media (NP-10) method. Soil collected from a Romaine lettuce field in Salinas, Calif. was used for the investigation. […]
Experimental Setup: Seven treatments were installed in 4 replicates each. […] The equivalent of gal/acre was calculated on the assumption that on acre of soil has an average weight of 3,625,895 lbs. […] Afterwards, soil was split between the two laboratories and were assessed according to the method described.
Verticillium levels in soil were assessed by dry incubation on semi selective media (NP-10). […]
The quantity of Verticillium in soil was assessed by dry soil plating on NP-10 semi-selective medium. […] After that, remaining soil was gently washed off the plates and the number of Verticillium microsclerotia colonies were counted on each plate under a microscope. The number of microsclerotia colonies is used as a standard method to quantify Verticillium in soil and was extrapolated for 1 g soil.
Results were analyzed in a one-way ANOVA (P=0.05) and a Fisher LSD Post-Hoc test. […]
Verticillium assessments were performed parallel in two separate laboratories. […] The quantity of Verticillium in soil was assessed by dry soil plating on NP-10 semi-selective medium. […]

Compound | eggplant height Jul. 27, 2017 [1] | eggplant height Aug. 4, 2017 [1] | eggplant height Aug. 10, 2017 [1] | eggplant height Aug. 17, 2017 ([1]; untreated 138) | Verticillium quantity (ms/g) Lab A (Verticillium) | Verticillium quantity (ms/g) Lab B (Verticillium) | eggplant height Aug. 17, 2017 ([1]; untreated 138, listed as comparative example 10)
CNC(=S)[S-].[Na+] [Sample 9, sodium methyldithiocarbamate] | 138bcdef mm | 150cdefg mm | 155cdefg mm | 160bcdef mm | – | – | –
CNC(=S)[S-].[Na+] [Comp. Example 3, sodium methyldithiocarbamate] | – | – | – | – | 0.5 ± 0.5 ms/g | 12 ± 3 ms/g | –
CNC(=S)[S-].[Na+] [Sample 8, sodium methyldithiocarbamate] | 140abcde mm | 145 cdefg mm | 159 bcdef mm | 163bcde mm | – | – | –
CNC(=S)[S-].[Na+] [Sample 10, sodium methyldithiocarbamate] | 150abc mm | 160bcde mm | 169abcde mm | 171acbd mm | – | – | 171 mm
